One data set concerns the target T1, human β3-AR (Homo sapiens, UniProt P13945).
T1 construct: Full length β3 AR clones (402 amino acids) containing the last 6 amino acids of hβ3-AR; expressed in transfected cells; host or cells: CHO cells
Description: cAMP accumulation (SPA) in CHO cells transfected with human β3 adrenergic receptor. The following applies: for EC50: CHO cells expressing human β3-AR, cAMP, 30 min incubation, 10^−9 M to 10^−5 M; for IA(β3): maximal response, IA=% activity compound/% activity isoproterenol at 10^−5 M. Type of data set: cell-based. As for the experimental part:
The ability of compounds of this invention to treat or inhibit disorders related to insulin resistance or hyperglycemia was confirmed with representative compounds of this invention in the following standard pharmacological test procedures, which measured the binding selectivity to the β1, β2, and β3 adrenergic receptors. Binding to the receptors was measured in Chinese Hamster ovary (CHO) cells that were transfected with adrenergic receptors. The following briefly summarizes the procedures used and results obtained.
Cloning of Human β3-AR Genomic DNA: cDNA was constructed by ligating four polymerase chain reaction (PCR) products using the following primers: an ATG-Narl fragment, sense primer 5′-[…]3′ and anti-sense primer 5′[…]3′; a Narl-Accl fragment, 5′[…]3′ as sense and 5′[…]3′ as anti-sense primer; an Accli-Styl fragment, sense primer 5′[…]3′ and anti-sense primer 5′[…]3′ and a Styl-TAG fragment, with sense primer 5′[…]3′ and anti-sense primer 5′[…]3′. The corresponding primer sequences are described in Mantzoros, C. S., et. al., Diabetes 45: 909-914 (1996). The four fragments are ligated into a pUC 18 plasmid (Gibco-BRL) and sequenced. Full length β3 AR clones (402 amino acids) containing the last 6 amino acids of hβ3-AR are prepared with the β3-βARpcDNA3 from ATTC.
Binding Procedure: Clones expressing receptor levels of 70 to 110 fmoles/mg protein were used in the test procedures. CHO cells were grown in 24-well tissue culture plates in Dulbecco's Modified Eagle Media with 10% fetal bovine serum, MEM non-essential amino acids, Penicillin-Streptompycin and Geneticin. On the day of test procedure, growth medium was replaced with preincubation media (Dulbecco's Modified Eagle Media and incubated for 30 minutes at 37° C. Preincubation medium was replaced with 0.2 ml treatment medium containing DMEM media containing 250 μM IBMX (isobutyl-1-methylxantine) plus 1 mM ascorbic acid with test compound dissolved in DMSO. Test compounds were tested over a concentration range of 10^−9 M to 10^−5 M for β3 cells and 10^−8 to 10^−4 M for β1 and β2 transfected cells. Isoproterenol (10^−5 M) was used as an internal standard for comparison of activity. Cells were incubated at 37° C. on a rocker for 30 min with the β3 cells and 15 min for β1 and β2 cells. Incubation was stopped with the addition of 0.2N HCl and neutralized with 2.5N NaOH. The plates, containing the cells and neutralized media, were stored at −20 degrees celsius until ready to test for cAMP using the SPA test kit (Amersham).
Data Analysis and Results: Data collected from the SPA test procedure were analyzed as per cent of the maximal isoproterenol response at 10^−5 M. Activity curves were plotted using the SAS statistical and graphics software.
IA=% activity compound/% activity isoproterenol
On the technique in general: Changes in cAMP serve as a functional read-out for many G protein-coupled receptors.

Where “and” joins values, the source holds several entries; their conditions need not be identical. Equal entries are not always repeated.

T1 sequence (P13945 whole entry): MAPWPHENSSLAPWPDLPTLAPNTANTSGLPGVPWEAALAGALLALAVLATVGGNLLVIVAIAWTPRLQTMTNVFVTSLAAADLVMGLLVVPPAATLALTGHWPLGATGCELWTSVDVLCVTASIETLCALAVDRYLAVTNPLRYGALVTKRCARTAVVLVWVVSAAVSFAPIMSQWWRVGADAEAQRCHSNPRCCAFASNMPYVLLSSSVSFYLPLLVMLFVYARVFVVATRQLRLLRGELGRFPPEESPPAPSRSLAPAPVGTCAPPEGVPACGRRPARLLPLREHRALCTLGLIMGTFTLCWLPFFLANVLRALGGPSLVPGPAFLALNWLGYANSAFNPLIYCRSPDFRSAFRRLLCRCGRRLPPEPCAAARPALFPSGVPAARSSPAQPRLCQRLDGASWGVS

The EC50 is the concentration that produces a half-maximal response. In general, melting point refers to the temperature, or range, at which the solid turns liquid. On to `CCc1ccc(-c2nc3cccnc3n2-c2ccc(CCNC[C@H](O)COc3ccc(O)cc3)cc2)cc1` [Example 8, 4-[(2S)-3-(2-{4-[2-(4-Ethyl-phenyl)-imidazo[4,5-b]pyridin-3-yl]-phenyl}-ethylamino)-2-hydroxy-propoxy]-phenol], for which the melting point fell in the range of 75 to 78 °C. For the same compound, at human β3-AR, the response was half-maximal at 6 nM (EC50) and the “IA(β3)” value is reported as 1.03.

Take `Oc1ccc(OC[C@@H](O)CNCCc2ccc(-n3cnc4cccnc43)cc2)cc1` [Example 3, 4-{(2S)-2-Hydroxy-3-[2-(4-imidazo[4,5-b]pyridin-3-yl-phenyl)-ethylamino]-propoxy}-phenol]: at human β3-AR, the concentration for a half-maximal effect (EC50) came out at 95 nM and the “IA(β3)” value is given as 0.76.

As to `CCCCCc1nc2cccnc2n1-c1ccc(CCNC[C@H](O)COc2cccc3[nH]c(=O)[nH]c23)cc1` [Example 13, 4-((2S)-2-Hydroxy-3-{2-[4-(2-pentyl-imidazo[4,5-b]pyridin-3-yl)-phenyl]-ethylaminol}-propoxy)-1,3-dihydro-benzoimidazol-2-one], at human β3-AR, the 50% effective concentration (EC50) turned out to be 46 nM and the “IA(β3)” value came to 0.087.

Regarding `Cc1ccn(-c2ccc(-c3nc4cccnc4n3-c3ccc(CCNCC(O)COc4ccc(O)cc4)cc3)c(Cl)c2)n1` (stereo not drawn) [Example 14, 4-{3-[2-(4-{2-[2-Chloro-4-(3-methyl-pyrazol-1-yl)-phenyl]-imidazo[4,5-b]pyridin-3-yl}-phenyl)-ethylamino]-2-hydroxy-propoxy}-phenol], the melting point was 87 to 89 °C. On human β3-AR, the EC50 was 54 nM and the “IA(β3)” value is recorded as 0.086.

As for `O=c1[nH]c2cccc(OCC(O)CNCCc3ccc(-n4c(CCC5CCCC5)nc5cccnc54)cc3)c2[nH]1` (stereo not drawn) [Example 12, 4-[3-(2-{4-[2-(2-Cyclopentyl-ethyl)-imidazo[4,5-b]pyridin-3-yl]-phenyl}-ethylamino) -2-hydroxy-propoxy]-1,3-dihydro-benzoimidazol-2-one], the melting point was in the range of 115 to 117 °C. The EC50 at human β3-AR was 5 nM and 15 nM.

The compound `C=C(C)n1c(=O)n(-c2ccc(CCNC[C@H](O)COc3ccc(O)cc3)cc2)c2ncccc21` [Example 7, 3-(4-{2-[(2S)-2-Hydroxy-3-(4-hydroxy-phenoxy)-propylamino]-ethyl}-phenyl)-1-isopropenyl-1,3-dihydro-imidazo[4,5-b]pyridin-2-one] registered a melting point of 62 to 64 °C. In addition, on human β3-AR, the response was half-maximal at 57 nM (EC50) and the “IA(β3)” value was determined as 1.12.

`CCCCCc1nc2cccnc2n1-c1ccc(CCNC[C@H](O)COc2ccc(O)cc2)cc1` [Example 9, 4-((2S)-2-Hydroxy-3-{2-[4-(2-pentyl-imidazo[4,5-b]pyridin-3-yl)-phenyl]-ethylaminol}-propoxy)-phenol] displayed a melting point of 50 to 52 °C. In addition, on human β3-AR, the midpoint of the response, the EC50, lay at 266 nM and the “IA(β3)” value is given as 0.74.

In turn, `O=[N+]([O-])c1cccnc1Nc1ccc(CCNC[C@H](O)COc2ccc(O)cc2)cc1` (hydrate or solvate) [Example 1, 4-((2S)-2-Hydroxy-3-{2-[4-(3-nitro-pyridin-2-ylamino)-phenyl]-ethylamino}-propoxy)-phenol] came in with a melting point of 148 to 149 °C.

In the case of `Oc1ccc(OC[C@@H](O)CNCCc2ccc(-n3c(-c4ccc(C5CCCCC5)cc4)nc4cccnc43)cc2)cc1` [Example 10, 4-[(2S)-3-(2-{4-[2-(4-Cyclohexyl-phenyl)-imidazo[4,5-b]pyridin-3-yl]-phenyl}-ethylamino)-2-hydroxy-propoxy]-phenol], the melting point was in the range of 100 to 102 °C. At human β3-AR, a half-maximal response (EC50) required 6 nM and the “IA(β3)” value is reported as 0.96.

For the compound `CCCCCCNC(=O)Nc1cccc(-c2nc3cccnc3n2-c2ccc(CCNCC(O)COc3ccc(O)cc3)cc2)c1` (stereo not drawn) (hydrate or solvate) [Example 16, 1-Hexyl-3-{3-[3-(4-{2-[2-hydroxy-3-(4-hydroxy-phenoxy)-propylamino]-ethyl}-phenyl)-3H-imidazo[4,5-b]pyridin-2-yl]-phenyl}-urea], the melting point was in the range of 93 to 95 °C.

For the compound `CCCCCCNC(=O)Nc1ccc(CCc2nc3cccnc3n2-c2ccc(CCNC[C@H](O)COc3ccc(O)cc3)cc2)cc1` (hydrate or solvate) [Example 17, 1-Hexyl-3-(4-{2-[3-(4-{2-[(2S)-2-hydroxy-3-(4-hydroxy-phenoxy)-propylamino]-ethyl}-phenyl)-3H-imidazo[4,5-b]pyridin-2-yl]-ethyl}-phenyl)-urea], the melting point was in the range of 90 to 92 °C.

Regarding `Nc1cccnc1Nc1ccc(CCNCC(O)COc2ccc(O)cc2)cc1` (stereo in doubt) [Example 2, 4-((2R)-3-{2-[4-(3-Amino-pyridin-2-ylamino)-phenyl]-ethylamino}-2-hydroxy-propoxy)-phenol], on human β3-AR, the concentration giving a half-maximal response (EC50) came out at 72 nM and the “IA(β3)” value is 1.01.

As for `O=[N+]([O-])c1cccnc1Nc1ccc(CCNC[C@H](O)COc2ccc(O)cc2)cc1` [Example 1, 4-((2S)-2-Hydroxy-3-{2-[4-(3-nitro-pyridin-2-ylamino)-phenyl]-ethylamino}-propoxy)-phenol], at human β3-AR, a half-maximal effect (EC50) was put at 324 nM and the “IA(β3)” value was 0.65.

`Oc1ccc(OC[C@@H](O)CNCCc2ccc(-n3c(CCC4CCCC4)nc4cccnc43)cc2)cc1` [Example 11, 4-[(2S)-3-(2-{4-[2-(2-Cyclopentyl-ethyl)-imidazo[4,5-b]pyridin-3-yl]-phenyl}-ethylamino)-2-hydroxy-propoxy]-phenol]: the melting point lay within 59 to 61 °C. On human β3-AR, the response was half-maximal at 10 nM (EC50) and the “IA(β3)” value was determined as 0.86.

Turning to `CCCCCCNC(=O)Nc1ccc(-c2nc3cccnc3n2-c2ccc(CCNC[C@H](O)COc3ccc(O)cc3)cc2)cc1` [Example 15, N-hexyl-N′-(4-{3-[4-(2-{[(2S)-2-hydroxy-3-(4-hydroxyphenoxy)propyl]amino}ethyl)phenyl]-3H-imidazo[4,5-b]pyridin-2-yl}phenyl)urea], at human β3-AR, it took 70 nM to reach a half-maximal effect (EC50) and the “IA(β3)” value came to 1.05.

The compound `Oc1ccc(OC[C@@H](O)CNCCc2ccc(-n3cnc4cccnc43)cc2)cc1` (hydrate or solvate) [Example 3, 4-{(2S)-2-Hydroxy-3-[2-(4-imidazo[4,5-b]pyridin-3-yl-phenyl)-ethylamino]-propoxy}-phenol] registered a melting point of 49 to 52 °C.

For `O=C(Nc1cccnc1Nc1ccc(CCNC[C@H](O)COc2ccc(O)cc2)cc1)c1ccccc1` [Example 6, N-[2-(4-{2-[(2S)-2-Hydroxy-3-(4-hydroxy-phenoxy)-propylamino]-ethyl}-phenylamino)-pyridin-3-yl]-benzamide], the melting point is 97 to 99 °C. In addition, on human β3-AR, the EC50 stood at 83 nM and the “IA(β3)” value came out at 0.88.

In turn, `Nc1cccnc1Nc1ccc(CCNC[C@H](O)COc2ccc(O)cc2)cc1` (hydrate or solvate) [Example 2, 4-((2R)-3-{2-[4-(3-Amino-pyridin-2-ylamino)-phenyl]-ethylamino}-2-hydroxy-propoxy)-phenol] gave a melting point of 63 to 65 °C.

For `CCCCCCNC(=O)Nc1ccc(-c2nc3cccnc3n2-c2ccc(CCNC[C@H](O)COc3ccc(O)cc3)cc2)cc1` (hydrate or solvate) [Example 15, N-hexyl-N′-(4-{3-[4-(2-{[(2S)-2-hydroxy-3-(4-hydroxyphenoxy)propyl]amino}ethyl)phenyl]-3H-imidazo[4,5-b]pyridin-2-yl}phenyl)urea], the melting point was in the range of 110 to 116 °C.

Consider `Nc1cccnc1Oc1ccc(CCNC[C@H](O)COc2ccc(O)cc2)cc1` [Example 5, 4-((2S)-3-{2-[4-(3-Amino-pyridin-2-yloxy)-phenyl]-ethylamino}-2-hydroxy-propoxy)-phenol], for which, at human β3-AR, the 50% effective concentration (EC50) worked out at 20 nM and the “IA(β3)” value worked out at 1.12.

Compound `CCCCCCNC(=O)Nc1cccnc1Nc1ccc(CCNC[C@H](O)COc2ccc(O)cc2)cc1` [Example 4, 1-Hexyl-3-[2-(4-{2-[(2S)-2-hydroxy-3-(4-hydroxy-phenoxy)-propylamino]-ethyl}-phenylamino)-pyridin-3-yl]-urea] yielded a melting point of 61 to 64 °C.

The values above are taken from US6537994B2, “Heterocyclic β3 adrenergic receptor agonists” (Wyeth, priority 2000, dated 2003).
